# Counter-ions that a name gives are not always drawn. Like-named read-outs stand apart in the source and are kept apart here.
# Key:
# [1] = Solubility of the free base and its salts (description); format: physicochemical
# [2] = Hygroscopicity by Dynamic Water Sorption (DVS); format: physicochemical; conditions: 25° C.; for found to be hygroscopic: DVS, 'Neither' = not hygroscopic
# Method: Hygroscopicity is measured using a Dynamic Water Sorption (DVS) apparatus. Measurements are performed at 25° C. using about 8-10 mg of substance. The r.h. is changed in steps of 10% r.h. as follows: 40-0-95-0-40% r.h. The minimum stage time is 60 min, the maximum 180 min, if the change in mass of 10 min is less than 0.002%/min, the r.h. is changed to the next step.
# [3] = clinical, humans; cited from earlier work
# [4] = cited from earlier work
# [5] = Equilibration in suspension (polymorphism); format: physicochemical; conditions: over a range of applied conditions
# From the text: Lack of polymorphism is a beneficial property for a solid form designated to be developed as a medicament.
# [6] = Solubility of the mesylate salt in different aqueous media (Example 7); format: physicochemical
# Method: The solubility of the 5-(2,4-dihydroxy-5-isopropyl-phenyl)-4-(4-morpholin-4-ylmethyl-phenyl)-isoxazole-3-carboxylic acid ethylamide (AUY922) mesylate salt in different aqueous media were determined and found to be as follows: […]
# [7] = Stress tests in solution or suspensions, 4 weeks at 50° C. (Example 8); format: physicochemical
# Method: The stability of the AUY922 mesylate salt in different aqueous media were determined under stress conditions (4 weeks at 50° C.) and the following appearance/content recovery/sum of by- and degradation products were found: […]
# [8] = pH and autoclavation of the 4.8-5.2 mg/ml aqueous mesylate solution; format: physicochemical
# Method: Preferably, the formulation comprises between around 4.8 and 5.2 mg/ml solution, more preferably 5.0 mg/ml solution, of 5-(2,4-dihydroxy-5-isopropyl-phenyl)-4-(4-morpholin-4-ylmethyl-phenyl)-isoxazole-3-carboxylic acid ethylamide mesylate. The pH of such a solution is around 4.2 and therefore at the stability maximum of the mesylate salt. This surprising finding renders the solution particularly suitable for pharmaceutical use. In particular, it allows to use the solution without any other excipients, such as buffers, for stabilizing the drug substance.
# Light sensitivity = format: physicochemical; conditions: as solid as well as in solution
# [9] = Stability and crystal formation of aqueous mesylate solutions on storage; format: physicochemical
# From the text: The expression “free of any other salts” as used herein means that neither any salts derived from inorganic or organic acids, such as sodium chloride, as isotonic agent nor any buffer salts are present.
# In one embodiment, the formulation consists of the mesylate salt of an isotonic aqueous solution of 5-(2,4-dihydroxy-5-isopropyl-phenyl)-4-(4-morpholin-4-ylmethyl-phenyl)-isoxazole-3-carboxylic acid ethylamide and 5% w/w of glucose or mannitol. […] Furthermore, the pH of such a solution prevents Maillard reactions during autoclavation of the 5% glucose solution which would lead to discoloration at neutral pH.
# [10] = water, read-out: solubility in water
# [11] = buffer pH 6.0 (phosphate buffer)
# [12] = buffer pH 6.8 (phosphate buffer)
compound,measurement,setting,value
"CCNC(=O)c1noc(-c2cc(C(C)C)c(O)cc2O)c1-c1ccc(CN2CCOCC2)cc1 [free base, 5-(2,4-Dihydroxy-5-isopropyl-phenyl)-4-(4-morpholin-4-ylmethyl-phenyl)-isoxazole-3-carboxylic acid ethylamide]",solubility in 0.1 N HCl,[1],1000 to 2500 µg/mL
same,solubility in water,[1]; water,less than 0.1 mg/ml
same,maximum uptake of water,[2]; 80% relative humidity,1.8%
same,found to be hygroscopic,[2],slightly hygroscopic
"C=CCNC1=C2C[C@@H](C)C[C@H](OC)[C@H](O)[C@@H](C)/C=C(\C)[C@H](OC(N)=O)[C@@H](OC)/C=C\C=C(/C)C(=O)NC(=CC1=O)C2=O [Example 17-AAG, 17-allylamino-17-demethoxy-geldanamycin]",dose limiting toxicity,[3],hepatic toxicity
same,solubility,[4],poor solubility
"5-(2,4-dihydroxy-5-isopropyl-phenyl)-4-(4-morpholin-4-ylmethyl-phenyl)-isoxazole-3-carboxylic acid ethylamide hemi fumarate [hemi fumarate salt]",solubility in water,[1]; water,100 to 250 µg/mL
"CCNC(=O)c1noc(-c2cc(C(C)C)c(O)cc2O)c1-c1ccc(CN2CCOCC2)cc1.O=P(O)(O)O [phosphate salt, 5-(2,4-dihydroxy-5-isopropyl-phenyl)-4-(4-morpholin-4-ylmethyl-phenyl)-isoxazole-3-carboxylic acid ethylamide phosphate]",solubility,[1]; [10],500 to 1000 µg/mL
"CCNC(=O)c1noc(-c2cc(C(C)C)c(O)cc2O)c1-c1ccc(CN2CCOCC2)cc1 [hydrochloride salt, 5-(2,4-Dihydroxy-5-isopropyl-phenyl)-4-(4-morpholin-4-ylmethyl-phenyl)-isoxazole-3-carboxylic acid ethylamide hydrochloric acid salt]",solubility in 0.1 N HCl,[1],less than 1 mg/ml
same,solubility at pH 5,[1]; pH 5,1-2.5 mg/ml
same,solubility in water,[1]; water,2500 to 5000 µg/mL
same,found to be hygroscopic,[2],Neither
same,change of crystalline form by equilibration in suspension,[5],did not change
"CCNC(=O)c1noc(-c2cc(C(C)C)c(O)cc2O)c1-c1ccc(CN2CCOCC2)cc1 [mesylate salt, 5-(2,4-Dihydroxy-5-isopropyl-phenyl)-4-(4-morpholin-4-ylmethyl-phenyl)-isoxazole-3-carboxylic acid ethylamide mesylate]",solubility compared with the free base (and other salts),[1],superior
same,solubility in 0.1 N HCl,[1]; mesylate,10000 to 20000 µg/mL
same,solubility,"[1]; pH 5, aqueous buffer, pH 5, read-out: solubility at pH 5",1000 to 2500 µg/mL
same,solubility,"[1]; water, pH 4, water, water at pH 4, read-out: solubility in water at pH 4",33500 µg/mL
same,found to be hygroscopic,[2]; mesylate,Neither
same,solubility,"[6]; 0.9% NaCl solution, saline or isotonic, thermodynamic from solid",12800 µg/mL
same,solubility,"[6]; 5% glucose solution, saline or isotonic, thermodynamic from solid",39000 µg/mL
same,solubility,"[6]; 5% mannitol solution, saline or isotonic, thermodynamic from solid",39000 µg/mL
same,solubility,"[6]; aqueous buffer, thermodynamic from solid, buffer pH 4.0 (acetate buffer)",14600 µg/mL
same,solubility,"[6]; aqueous buffer, thermodynamic from solid, buffer pH 5.0 (acetate buffer)",3200 µg/mL
same,solubility,"[6]; aqueous buffer, thermodynamic from solid, buffer pH 6.0 (phosphate buffer)",600 µg/mL
same,solubility,"[6]; aqueous buffer, thermodynamic from solid, buffer pH 7.0 (phosphate buffer)",700 µg/mL
same,solubility,"[6]; aqueous buffer, thermodynamic from solid, buffer pH 8.0 (borate buffer)",1800 µg/mL
same,solubility,"[6]; pH 3.6, thermodynamic from solid, Water (pH of the saturated solution=3.6)",37500 µg/mL
same,solubility,"[6]; saline or isotonic, thermodynamic from solid, 5% glucose solution pH 4",35600 µg/mL
same,solubility,"[6]; saline or isotonic, thermodynamic from solid, 5% glucose solution pH 7",37500 µg/mL
same,appearance,[7]; 0.9% NaCl,colorless solution
same,sum of by- and degradation products,[7]; 0.9% NaCl,0.34%
same,appearance,[7]; 5% glucose solution,colorless solution
same,sum of by- and degradation products,[7]; 5% glucose solution,0.34%
same,appearance,[7]; Water,colorless solution
same,sum of by- and degradation products,[7]; Water,0.32%
same,appearance,[7]; buffer pH1.0 (HCl),colorless solution
same,sum of by- and degradation products,[7]; buffer pH1.0 (HCl),2.83%
same,appearance,[7]; buffer pH2.0 (citrate buffer),colorless solution
same,sum of by- and degradation products,[7]; buffer pH2.0 (citrate buffer),0.58%
same,appearance,[7]; buffer pH3.0 (citrate buffer),colorless solution
same,sum of by- and degradation products,[7]; buffer pH3.0 (citrate buffer),0.47%
same,appearance,[7]; buffer pH 4.0 (acetate buffer),colorless solution
same,sum of by- and degradation products,[7]; buffer pH 4.0 (acetate buffer),0.36%
same,appearance,[7]; buffer pH 5.0 (acetate buffer),colorless solution
same,sum of by- and degradation products,[7]; buffer pH 5.0 (acetate buffer),0.50%
same,appearance,[7]; [11],colorless suspension
same,sum of by- and degradation products,[7]; [11],0.49%
same,appearance,[7]; [12],colorless suspension
same,sum of by- and degradation products,[7]; [12],0.79%
same,appearance,[7]; buffer pH8.0 (borate buffer),colorless suspension
same,sum of by- and degradation products,[7]; buffer pH8.0 (borate buffer),0.26%
same,pH of stability maximum,[7]; stress conditions,4
same,pH of the solution,"[8]; aqueous solution, around 4.8 to 5.2 mg/ml mesylate",around 4.2
same,stability to autoclavation,"[8]; solution of around 4.8 to 5.2 mg/ml, about 120° C., 20 to 40 minutes, around 2 bar",without causing any color changes or degradation products
same,light sensitivity,Light sensitivity,light sensitive
same,crystal formation in solution,"[9]; in the presence of other salts (e.g. sodium chloride, buffer salts)",crystals are formed sooner or later
same,chemical stability in formulation,[9]; isotonic aqueous solution with 5% w/w of glucose or mannitol,chemically stable
same,crystal formation on storage,"[9]; isotonic aqueous solution with 5% w/w of glucose or mannitol, longer storage time, e.g. several months",crystal formation can be avoided
"CCNC(=O)c1noc(-c2cc(C(C)C)c(O)cc2O)c1-c1ccc(CN2CCOCC2)cc1.O=C(O)C(O)C(O)C(=O)O [tartrate salt, 5-(2,4-dihydroxy-5-isopropyl-phenyl)-4-(4-morpholin-4-ylmethyl-phenyl)-isoxazole-3-carboxylic acid ethylamide tartrate]",solubility,[1]; [10],> 2000 µg/mL

# Reference: patent publication US8487095B2, “Acid addition salts, hydrates and polymorphs of 5-(2,4-dihydroxy-5-iso-propyl-phenyl)-4-(4-morpholin-4-ylmethyl-phenyl)-isoxazole-3-carboxylic acid ethylamide and formulations comprising these forms” (priority 2007, dated 2013)
